# Laboratory results taken from patent US5932709A (University of Michigan, priority 1997, dated 1999).
# What was measured:
# [1] = tested on: B16 murine melanoma cells; assay: MTT growth inhibition, B16; format: cell-based; details: Mus musculus, 72 h, 3 days, read-out: Growth Inhibitory Activity IC50
# Description: (§1) Camptothecin was used as a control to test the anti-cancer efficacy of the novel camptothecin analogs of the present invention.
# (§2) Murine B16 melanoma cell line was grown in RPMI 1640 medium supplemented with 10% heat-inactivated fetal bovine serum, 2 mM L-glutamine, 50 units/mL penicillin, 50 μg/mL streptomycin, 25 μg/mL gentamicin, 0.75% sodium bicarbonate 10 mM HEPES buffer (pH 7.4), and 0.06 mg/mL AntiPPLO. Murine P388 leukemic cell line and human HT-29 colon adenocarcinoma line were maintained in RPMI 1640 medium supplemented with 10% heat-inactivated fetal bovine serum. […] MCF-7M human breast adenocarcinoma was maintained in IMEM supplemented with 5% non heat-inactivated fetal bovine serum and 1 nM insulin.
# (§3) [See "Rapid Colorimetric Assay For Cellular Growth And Survival: Application To Proliferation And Cytotoxicity Assays," J. Immun. Meth. 65:55 (1983)]. The assay utilizes a tetrazolium salt to quantitatively measure mammalian cell survival and proliferation by colorimetric methods. In particular, MTT, a pale yellow compound with minimal absorbance, is incubated with cancerous cells in addition to (or in the absence of) a particular camptothecin analog. Living cells with active mitochondrial enzymes metabolize the MTT into a dark blue/purple formazan product with high absorbance. The exact procedure used to test the camptothecin analogs of the present invention is described below.
# (§4) Exponentially growing cells (1-2×10^3 cells, unless specified otherwise) in 0.1 mL medium were seeded on day 0 in a 96-well microtiter plate. On day 1, 0.1 mL aliquots of medium containing graded concentrations of test analogs were added to the cell plates. After incubation at 37° C. in a humidified incubator for 3 days (P388, P388/CPT, B16) or 6 days (HT-29, MCF-7M), the plates were centrifuged briefly and 100 μL of the growth medium was removed. Cell cultures were incubated with 50 μL of 3-(4,5-dimethylthiazol-2-yl)-2,5-diphenyl-tetrazolium bromide [MTT, 1 mg/mL in Dulbecco's phosphate buffered saline (PBS)] for 4 hr at 37° C. The resulting purple formazan precipitate was solubilized with 200 μL of 0.04 N HCl in isopropyl alcohol. Absorbance was monitored in a BioRad Model 3550 Microplate Reader at a test wavelength of 570 nm and a reference wavelength of 630 nm. The absorbance is transferred to a PC 486 computer. The IC50 values were determined by a computer program (EZ-ED50) that fits all of the data to the following four-parameter logistic equation:
# (§5) Y=(Amax -Amin)/(1+[X/IC^50 ])^n +Amin
# (§6) where Amax is the absorbance of control cells, Amin is the absorbance of cells in the presence of highest agent concentration, IC^50 is the concentration of agent that inhibits the cell growth by 50% of control cells (based on the absorbance) and n is the slope of the curve.
# [2] = tested on: P388/CPT CPT-resistant murine leukemia cells; assay: MTT growth inhibition, P388/CPT; format: cell-based; details: Mus musculus, 72 h, 3 days, read-out: Growth Inhibitory Activity IC50
# Description: as §1, §2, §3, §4, §5, §6
# [3] = tested on: MX-1 human breast tumor xenograft; assay: in vivo
# Excerpt: For all the models, the vehicle used to deliver the analog of interest was isotonic saline.
# For the MX-1 human breast tumor xenograft models, the following procedure was used. Nude mice are implanted s.c. by trocar with fragments of MX-1 mammary carcinomas harvested from s.c. growing MX-1 tumors in nude mice hosts. When tumors are approximately 5 mm×5 mm in size (usually about ten days after inoculation), the animals are pair-matched into treatment and control groups. Each group contains ten tumored mice, each of which is ear-tagged and followed individually throughout the experiment. The administration of drugs or vehicle begins the day the animals are pair-matched (day 1). The doses, route of drug administration and schedule are selected as appropriate for the study in question. If the MTD dose of an agent is not known, it is determined in an initial dosing experiment in non-tumored mice. In a typical experiment, drugs are given at their MTD and 1/2 MTD doses i.p. on a daily×5 schedule.
# The experiment is usually terminated when control tumors reach a size of 2-3 g. Mice are weighed twice weekly, and tumor measurements are taken by calipers twice weekly, starting on day 1. These tumor measurements are converted to mg tumor weight by a well known formula, and from these calculated tumor weights the termination date can be determined. Upon termination, all mice are weighed, sacrificed, and their tumors excised. Tumors are weighed, and the mean tumor weight per group is calculated.
# Some drugs cause tumor shrinkage in the MX-1 model. With these agents, the final weight of a given tumor is subtracted from its own weight at the start of the treatment on day 1. This difference divided by the initial tumor weight is the % shrinkage. A mean % tumor shrinkage can be calculated from data from the mice in a group that experienced MX-1 regressions. If the tumor completely disappears in a mouse, this is considered a complete regression or complete tumor shrinkage. If desired, mice with partial or total tumor regressions can be kept alive past the termination date to see whether they live to become long term, tumor-free survivors.
# Note that in the following table the abbreviation SR refers to tumor shrinkage rate, while those entries followed by a superscripted `2` are tumor growth inhibition rates, not tumor shrinkage rates.
# [4] = tested on: P388 murine leukemia cells; assay: MTT growth inhibition, P388; format: cell-based; details: Mus musculus, 72 h, 3 days, read-out: Growth Inhibitory Activity IC50
# Description: as §1, §2, §3, §4, §5, §6
# [5] = tested on: HT-29 human colon adenocarcinoma cells; assay: MTT growth inhibition, HT-29; format: cell-based; details: 144 h, HT-29, MTT, 6 days, read-out: Growth Inhibitory Activity IC50
# Description: as §1, §2, §3, §4, §5, §6
smiles,measurement,setting,value
"CC[C@@]1(O)C(=O)OCc2c1cc1n(c2=O)Cc2c-1nc1ccccc1c2CO[C@@H]1C=C[C@H](OC(C)=O)[C@@H](COC(C)=O)O1 [HAR4, 7-[4,6-di-O-acetyl-2,3-dideoxy-α-D-erythro-hex-2-enopyranosyl]oxymethylcamptothecin]",IC50,[1],0.026 µg/mL
same,IC50,[2],7.04 µg/mL
same,complete disappearance of tumors (animals),[3]; 10 mg/kg,2
same,Tox Deaths,[3]; 10 mg/kg i.p. daily×5,0/10
same,ΔWeight (%),[3]; 10 mg/kg i.p. daily×5,-10.2%
same,SR(%) (Tumor Shrinkage Rate),"[3]; 10 mg/kg i.p. daily×5, 8/10 animals",77%
same,Shrinkage (animals),"[3]; 10 mg/kg i.p. daily×5, partial (77%)",8/10
same,SR(%) (Tumor Shrinkage Rate),"[3]; 10 mg/kg, 2/10 animals",100%
same,Shrinkage (animals),"[3]; 10 mg/kg, complete (100%) shrinkage",2/10
same,mice with tumor shrinkage,"[3]; 10 mg/kg, mean 77%",8
same,SR(%) (Tumor Shrinkage Rate),[3]; 20 mg/kg i.p. daily×5,99%
same,Shrinkage (animals),[3]; 20 mg/kg i.p. daily×5,1/10
same,Tox Deaths,[3]; 20 mg/kg i.p. daily×5,9/10
same,toxicity,"[3]; 20 mg/kg, in words",toxic
same,antitumor activity vs. MX-1,[3]; in words,"almost equivalent, outstanding activity"
same,IC50,[4],0.03 µg/mL
same,IC50,[5],0.011 µg/mL
"CC[C@@]1(O)C(=O)OCc2c1cc1n(c2=O)Cc2c-1nc1ccccc1c2CO[C@@H]1C=C[C@H](O[C@H]2O[C@H](COC(C)=O)[C@@H](OC(C)=O)[C@H](OC(C)=O)[C@H]2OC(C)=O)[C@@H](COC(C)=O)O1 [HAR5, 7-[6-O-acetyl-4-O-(2,3,4,6-tetra-O-acetyl-α-D-glucopyranosyl)-2,3-dideoxy-α-D-erythro-hex-2-enopyranosyl]oxymethylcamptothecin]",IC50,[1],0.43 µg/mL
same,IC50,[2],21.2 µg/mL
same,Tox Deaths,[3]; 100 mg/kg i.p. daily×5,0/10
same,animals with tumor growth inhibition (Shrinkage column),[3]; 100 mg/kg i.p. daily×5,10/10
same,ΔWeight (%),[3]; 100 mg/kg i.p. daily×5,+7.4%
same,"Tumor growth inhibition rate (footnote 2, SR column)","[3]; 100 mg/kg i.p. daily×5, 10/10 animals",48%
same,mice with growth inhibition,[3]; 200 mg/kg,7
same,mice with tumor shrinkage,[3]; 200 mg/kg,3
same,Shrinkage (animals),[3]; 200 mg/kg i.p. daily×5,3/10
same,Tox Deaths,[3]; 200 mg/kg i.p. daily×5,0/10
same,animals with tumor growth inhibition (Shrinkage column),[3]; 200 mg/kg i.p. daily×5,7/10
same,ΔWeight (%),[3]; 200 mg/kg i.p. daily×5,+5.3%
same,SR(%) (Tumor Shrinkage Rate),"[3]; 200 mg/kg i.p. daily×5, 3/10 animals",73%
same,"Tumor growth inhibition rate (footnote 2, SR column)","[3]; 200 mg/kg i.p. daily×5, 7/10 animals",82%
same,IC50,[4],0.362 µg/mL
same,IC50,[5],0.105 µg/mL
"CC[C@@]1(O)C(=O)OCc2c1cc1n(c2=O)Cc2c-1nc1ccccc1c2CO[C@@H]1C=C[C@H](O[C@H]2O[C@H](CO)[C@@H](O)[C@H](O)[C@H]2O)[C@@H](CO)O1 [HAR6, 7-[4-O-(α-D-glucopyranosyl)-2,3-dideoxy-α-D-erythro-hex-2-enopyranosyl]-oxymethylcamptothecin]",IC50,[1],2.43 µg/mL
same,IC50,[2],28.4 µg/mL
same,mice with growth inhibition,[3]; 50 mg/kg,2
same,mice with tumor shrinkage,[3]; 50 mg/kg,8
same,SR(%) (Tumor Shrinkage Rate),[3]; 50 mg/kg i.p. daily×5,81%
same,Shrinkage (animals),[3]; 50 mg/kg i.p. daily×5,8/10
same,Tox Deaths,[3]; 50 mg/kg i.p. daily×5,0/10
same,ΔWeight (%),[3]; 50 mg/kg i.p. daily×5,+2.5%
same,tumor growth inhibition,"[3]; 50 mg/kg, remaining 2 animals",82%
same,body weight loss,[3]; 100 mg/kg,approximately 19%
same,drug-related deaths,[3]; 100 mg/kg,the tenth animal died of toxicity and one
same,mice with tumor shrinkage,[3]; 100 mg/kg,9
same,SR(%) (Tumor Shrinkage Rate),[3]; 100 mg/kg i.p. daily×5,94%
same,Shrinkage (animals),[3]; 100 mg/kg i.p. daily×5,9/10
same,Tox Deaths,[3]; 100 mg/kg i.p. daily×5,1/10
same,ΔWeight (%),[3]; 100 mg/kg i.p. daily×5,-18.6%
same,antitumor activity vs. MX-1,[3]; in words,impressive antitumor activity vs. MX-1
same,IC50,[4],1.68 µg/mL
same,IC50,[5],0.476 µg/mL
"CC[C@@]1(O)C(=O)OCc2c1cc1n(c2=O)Cc2c-1nc1ccccc1c2CO[C@@H]1C=C[C@H](O)[C@@H](CO)O1 [HAR7, 7-[2,3-dideoxy-α-D-erythro-hex-2-enopyranosyl]-oxymethylcamptothecin]",IC50,[1],0.173 µg/mL
same,IC50,[2],18.7 µg/mL
same,mice with tumor shrinkage,[3]; 20 mg/kg,10
same,SR(%) (Tumor Shrinkage Rate),[3]; 20 mg/kg i.p. daily×5,98%
same,Shrinkage (animals),[3]; 20 mg/kg i.p. daily×5,10/10
same,Tox Deaths,[3]; 20 mg/kg i.p. daily×5,0/10
same,ΔWeight (%),[3]; 20 mg/kg i.p. daily×5,-0.05%
same,weight loss,"[3]; 20 mg/kg, in words",virtually no weight loss
same,SR(%) (Tumor Shrinkage Rate),[3]; 40 mg/kg i.p. daily×5,98%
same,Shrinkage (animals),[3]; 40 mg/kg i.p. daily×5,5/10
same,Tox Deaths,[3]; 40 mg/kg i.p. daily×5,4/10
same,ΔWeight (%),[3]; 40 mg/kg i.p. daily×5,-25.0%
same,toxicity,"[3]; 40 mg/kg, in words",produced lethality
same,antitumor activity vs. MX-1,[3]; in words,"almost equivalent, outstanding activity"
same,IC50,[4],0.088 µg/mL
same,IC50,[5],0.031 µg/mL
